In patent US11390606B2, “Pyridazinone compounds and uses thereof” (Edgewise Therapeutics, Inc., priority 2018, dated 2022):

These compounds were tested against T1, skeletal myofibrils (Rabbit Psoas), myosin ATPase activity (assay: Skeletal Myofibril ATPase Assay). Conditions: skeletal myofibrils (Rabbit Psoas 0.25 mg/mL), PK/LDH-coupled NADH absorbance at 340 nm.
T1 construct: Rabbit Psoas Prep 11 (0.25 mg/mL)
Assay type: biochemical
Description: Overview: Myosin ATPase activity is assessed by using a coupled reaction system, in which ADP generated by the myosin ATPase function is coupled to the disappearance of NADH through the pyruvate kinase/lactate dehydrogenase (PK-LDH) system. Myosin ATPase activity produces ADP, which is used as a substrate for PK to produce pyruvate and regenerate ATP. The pyruvate is then used as a substrate by LDH to oxidize NADH to NAD+. The rate of the reaction is monitored through the time-dependent disappearance of NADH using absorbance at 340 nm. Inhibition of ATPase activity by the assayed compounds is indicated by a reduced rate of NADH loss, relative to vehicle-treated controls, over the experimental time window. To assess the selectivity of the assayed compounds for skeletal myofibrils, the compounds are counter-screened in cardiac myofibrils.
Materials: The following stock solutions and reagents were used in the Skeletal Myofibril ATPase Assay:
Stock Solutions of pCa buffer. Combine PIPES, CaCl2, and EGTA solutions with 70 mL of water. Adjust pH to 7.0 and bring final volume to 100 mL.
Buffer A & Buffer B. Buffers were stored on ice until use.
Skeletal Myofibril ATPase Assay Procedure: BSA, ATP, NADH, PEP, and DTT solutions were thawed at room temperature, then transferred to ice. Pellet-frozen myofibrils were transferred with approximately twice the required volume into a sufficiently large tube and capped. Myofibrils were thawed by rolling in a water bath for approximately 15 min at room temperature and cooled on ice. Buffers A and B were prepared by adjusting volumes as necessary for required number of wells and stored on ice. 0.5 μL of the compounds to be assayed were added into wells. 25 μL of Buffer A was dispensed into the wells, followed by 25 μL of Buffer B. The wells were measured for absorbance at 340 nm, using a kinetic protocol in which the wells are read every 1.5-2 min for 45 min. The slope of the data was approximated by subtracting the minimum absorbance value from the maximum value for each well. This was accomplished either in the SoftMax Pro software or in a spreadsheet program such as Excel. Using GraphPad Prism 8.0, the data was normalized by assigning a value of 100% to the 1% DMSO vehicle wells. Typically, a normalized 0% value was simply assigned to a (Max−Min) value of 0. The normalized data was fit to a Four Parameter Logistic sigmoidal equation, constraining the bottom to be 0 or greater. Compounds of Table 1 to 4 were tested and results of the assay appear in Table 5 herein. A=IC50 is less than or equal to 10 μM; B=IC50 is greater than 10 μM and less than 100 μM; C=IC50 is greater than 100 μM.

| SMILES | IC50 [µM] |
| --- | --- |
| O=c1ccc(-c2cnc(NC3CC3)nc2)nn1Cc1ccc(Cl)cc1 [Compound 8, 2-(4-chlorobenzyl)-6-(2-(cyclopropylamino)pyrimidin-5-yl)pyridazin-3(2H)-one] | < 10 |
| C=Cc1ccc(Cn2nc(-c3ccc(OC)cc3F)ccc2=O)cc1 [Compound 202, 6-(2-fluoro-4-methoxyphenyl)-2-(4-vinylbenzyl)pyridazin-3(2H)-one] | > 100 |
| O=C1CCCN1c1ncc(-c2ccc(=O)n(Cc3ccc(Cl)cc3)n2)cn1 [Compound 45, 2-(4-chlorobenzyl)-6-(2-(2-oxopyrrolidin-1-yl)pyrimidin-5-yl)pyridazin-3(2H)-one] | 10 to 100 |
| O=c1ccc(-c2cnc(N3CC(OC(F)(F)F)C3)nc2)nn1Cc1ccc(Cl)cc1 [Compound 18, 2-(4-chlorobenzyl)-6-(2-(3-(trifluoromethoxy)azetidin-1-yl)pyrimidin-5-yl)pyridazin-3(2H)-one] | < 10 |
| O=c1ccc(-c2cnc(OCC(F)(F)F)nc2)nn1Cc1cc(Cl)ccc1O [Compound 50, 2-(5-chloro-2-hydroxybenzyl)-6-(2-(2,2,2-trifluoroethoxy)pyrimidin-5-yl)pyridazin-3(2H)-one] | < 10 |
| O=c1ccc(-c2cnc(OCC3(F)COC3)nc2)nn1Cc1ccc(Cl)cc1 [Compound 22, 2-(4-chlorobenzyl)-6-(2-((3-fluorooxetan-3-yl)methoxy)pyrimidin-5-yl)pyridazin-3(2H)-one] | < 10 |
| O=c1ccc(-c2cnc(N3CC4(C3)CC(F)(F)C4)nc2)nn1Cc1ccc(Cl)cc1 [Compound 14, 2-(4-chlorobenzyl)-6-(2-(6,6-difluoro-2-azaspiro[3.3]heptan-2-yl)pyrimidin-5-yl)pyridazin-3(2H)-one] | < 10 |
| O=c1ccc(-c2cnc(OCC(F)(F)F)nc2)nn1Cc1ccc(Cl)cc1 [Compound 5, 2-(4-chlorobenzyl)-6-(2-(2,2,2-trifluoroethoxy)pyrimidin-5-yl)pyridazin-3(2H)-one] | < 10 |
| O=c1ccc(-c2cnc(OCC(F)(F)F)nc2)nn1Cc1ccc(F)cc1 [Compound 37, 2-(4-fluorobenzyl)-6-(2-(2,2,2-trifluoroethoxy)pyrimidin-5-yl)pyridazin-3(2H)-one] | < 10 |
| O=c1ccc(-c2cnc(OCC(F)(F)F)nc2)nn1Cc1ccc(F)c(F)c1 [Compound 42, 2-(3,4-difluorobenzyl)-6-(2-(2,2,2 trifluoroethoxy)pyrimidin-5-yl)pyridazin-3(2H)-one] | < 10 |
| O=c1ccc(-c2cnc(OCC3COC3)nc2)nn1Cc1ccc(Cl)cc1 [Compound 33, 2-(4-chlorobenzyl)-6-(2-(oxetan-3-ylmethoxy)pyrimidin-5-yl)pyridazin-3(2H)-one] | < 10 |
| [2H]C([2H])(c1ccccc1)n1nc(-c2cnc(OCC(F)(F)F)nc2)ccc1=O [Compound 52, 2-(phenylmethyl-d2)-6-(2-(2,2,2-trifluoroethoxy)pyrimidin-5-yl)pyridazin-3(2H)-one] | < 10 |
| O=c1ccc(-c2cnc(NCCOC(F)F)nc2)nn1Cc1ccc(Cl)cc1 [Compound 46, 2-(4-chlorobenzyl)-6-(2-((2-(difluoromethoxy)ethyl)amino)pyrimidin-5-yl)pyridazin-3(2H)-one] | < 10 |
| NC(=O)c1ccc(Cn2nc(-c3ccc(OC(F)F)cc3)ccc2=O)cc1 [Compound 116, 4-((3-(4-(difluoromethoxy)phenyl)-6-oxopyridazin-1(6H)-yl)methyl)benzamide] | > 100 |
| O=c1ccc(-c2cnc(OCC(F)(F)F)nc2)nn1Cc1cccc(Cl)c1 [Compound 34, 2-(3-chlorobenzyl)-6-(2-(2,2,2-trifluoroethoxy)pyrimidin-5-yl)pyridazin-3(2H)-one] | < 10 |

More lines, now with the values ahead:

| IC50 [µM] | SMILES |
| --- | --- |
| < 10 | O=c1ccc(-c2ccc(F)cc2)nn1Cc1cccc(F)c1 [Compound 242, 2-(3-fluorobenzyl)-6-(4-fluorophenyl)pyridazin-3(2H)-one] |
| < 10 | O=c1ccc(-c2ccc(Cl)cc2)nn1Cc1cccc(F)c1 [Compound 317, 6-(4-chlorophenyl)-2-(3-fluorobenzyl)pyridazin-3(2H)-one] |
| < 10 | Cc1ccc(-c2ccc(=O)n(Cc3ccc(F)cc3)n2)cc1 [Compound 236, 2-(4-fluorobenzyl)-6-(p-tolyl)pyridazin-3(2H)-one] |
| < 10 | O=c1ccc(-c2ccc(OCC(F)F)cc2)nn1Cc1ccc(Cl)cc1 [Compound 102, 2-(4-chlorobenzyl)-6-(4-(2,2-difluoroethoxy)phenyl)pyridazin-3(2H)-one] |
| < 10 | Cc1ccc(-c2ccc(=O)n(Cc3ccc(Cl)cc3)n2)cc1 [Compound 301, 2-(4-chlorobenzyl)-6-(p-tolyl)pyridazin-3(2H)-one] |
| > 100 | O=C1Cc2cc(-c3ccc(=O)n(Cc4ccc(Cl)cc4)n3)ccc2N1 [Compound 122, 5-(1-(4-chlorobenzyl)-6-oxo-1,6-dihydropyridazin-3-yl)indolin-2-one] |
| 10 to 100 | N#Cc1ccc(Cn2nc(-c3ccc(Br)cc3)ccc2=O)cc1 [Compound 238, 4-((3-(4-bromophenyl)-6-oxopyridazin-1(6H)-yl)methyl)benzonitrile] |
| 10 to 100 | NC(=O)c1ccc(-c2ccc(=O)n(Cc3ccc(Cl)cc3)n2)cc1 [Compound 114, 4-(1-(4-chlorobenzyl)-6-oxo-1,6-dihydropyridazin-3-yl)benzamide] |
| < 10 | COc1ccc(-c2ccc(=O)n(Cc3ccc(Cl)cc3)n2)cn1 [Compound 17, 2-(4-chlorobenzyl)-6-(6-methoxypyridin-3-yl)pyridazin-3(2H)-one] |
| > 100 | COc1cc(F)ccc1-c1ccc(=O)n(Cc2ccc(Cl)cc2)n1 [Compound 316, 2-(4-chlorobenzyl)-6-(4-fluoro-2-methoxyphenyl)pyridazin-3(2H)-one] |
| > 100 | O=c1ccc(-c2ccc3scnc3c2)nn1Cc1ccc(Cl)cc1 [Compound 117, 6-(benzo[d]thiazol-5-yl)-2-(4-chlorobenzyl)pyridazin-3(2H)-one] |
| < 10 | O=c1ccc(-c2ccc(Cl)cc2)nn1Cc1ccc(F)cc1 [Compound 306, 6-(4-chlorophenyl)-2-(4-fluorobenzyl)pyridazin-3(2H)-one] |
| > 100 | CN(C)S(=O)(=O)c1ccc(-c2ccc(=O)n(Cc3ccc(Cl)cc3)n2)cc1 [Compound 120, 4-(1-(4-chlorobenzyl)-6-oxo-1,6-dihydropyridazin-3-yl)-N,N-dimethyl-benzenesulfonamide] |
| < 10 | CNc1ncc(-c2ccc(=O)n(Cc3ccc(Cl)cc3)n2)cn1 [Compound 12, 2-(4-chlorobenzyl)-6-(2-(methylamino)pyrimidin-5-yl)pyridazin-3(2H)-one] |
| < 10 | O=c1ccc(-c2cnc(NCC(F)F)nc2)nn1Cc1ccc(Cl)cc1 [Compound 32, 2-(4-chlorobenzyl)-6-(2-((2,2-difluoroethyl)amino)pyrimidin-5-yl)pyridazin-3(2H)-one] |
| > 100 | O=c1ccc(-c2ccc(F)cc2)nn1Cc1cccc(C(F)(F)F)c1 [Compound 241, 6-(4-fluorophenyl)-2-(3-(trifluoromethyl)benzyl)pyridazin-3(2H)-one] |
| < 10 | O=c1ccc(-c2ccc(OCC(F)(F)F)nc2)nn1Cc1ccc(Cl)cc1 [Compound 11, 2-(4-chlorobenzyl)-6-(6-(2,2,2-trifluoroethoxy)pyridin-3-yl)pyridazin-3(2H)-one] |
| < 10 | CCOc1ccc(-c2ccc(=O)n(Cc3ccc(Cl)cc3)n2)cc1 [Compound 213, 2-(4-chlorobenzyl)-6-(4-ethoxyphenyl)pyridazin-3(2H)-one] |
| < 10 | O=c1ccc(-c2ccc(OC(F)F)cc2)nn1Cc1ccc(Cl)cc1 [Compound 103, 2-(4-chlorobenzyl)-6-(4-(difluoromethoxy)phenyl)pyridazin-3(2H)-one] |
| < 10 | Cc1ccc(Cn2nc(-c3ccc(Cl)cc3)ccc2=O)cc1 [Compound 311, 6-(4-chlorophenyl)-2-(4-methylbenzyl)pyridazin-3(2H)-one] |
| < 10 | O=c1ccc(-c2ccc(F)cc2)nn1Cc1ccc(Cl)cc1 [Compound 300, 2-(4-chlorobenzyl)-6-(4-fluorophenyl)pyridazin-3(2H)-one] |
| 10 to 100 | CNC(=O)c1ccc(-c2ccc(=O)n(Cc3ccc(Cl)cc3)n2)cc1 [Compound 113] |
| < 10 | CN(C)c1ccc(-c2ccc(=O)n(Cc3ccc(Cl)cc3)n2)cn1 [Compound 27, 2-(4-chlorobenzyl)-6-(6-(dimethylamino)pyridin-3-yl)pyridazin-3(2H)-one] |
